Data from ChEMBL document CHEMBL1201862, “PubChem BioAssay data set” (2004).
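All cell lines were grown in 96-well plates and treated with compound for 48 hours. GI50: concentration for 50% inhibition of growth.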 Calls of active or inactive are those of the source. Rule as the data show it: active = GI50 up to about 1.1 µM and inactive = higher.

Tests used:
Assay in all cases: inhibition of tumour cell growth, NCI panel, 48 h
[1] = system: LOX IMVI
[2] = system: SN12C
[3] = system: A549
[4] = system: SNB-75
[5] = system: MOLT-4
[6] = system: IGROV-1
[7] = system: SK-OV-3
[8] = system: UACC-257
[9] = system: SR
[10] = system: HL-60
[11] = system: SK-MEL-2
[12] = system: SNB-19
[13] = system: OVCAR-3
[14] = system: 786-0
[15] = system: HCT-15
[16] = system: SK-MEL-5
[17] = system: Hs-578T
[18] = system: PC-3
[19] = system: DU-145
[20] = system: T47D

SMILES	GI50 [1]	GI50 [2]	GI50 [3]	GI50 [4]	GI50 [5]	GI50 [6]	GI50 [7]	GI50 [8]	GI50 [9]	GI50 [10]	GI50 [11]	GI50 [12]	GI50 [13]	GI50 [14]	GI50 [15] [µM]	GI50 [16]	GI50 [17]	GI50 [18]	GI50 [19]	GI50 [20]
O=C(/C=C(\O)C(=O)O)/C=C(\O)c1ccc(Cl)cc1	> 100 µM (inactive)	> 100 µM (inactive)	> 100 µM (inactive)	> 100 µM (inactive)	> 100 µM (inactive)	> 100 µM (inactive)	> 100 µM (inactive)	> 100 µM (inactive)	> 100 µM (inactive)	> 100 µM (inactive)	> 100 µM (inactive)	> 100 µM (inactive)	> 100 µM (inactive)	> 100 µM (inactive)	> 100	> 100 µM (inactive)	–	–	–	–
CC[C@H](CC[C@@H](C)[C@H]1CC[C@H]2[C@@H]3CC=C4C[C@@H](O)CC[C@]4(C)[C@H]3CC[C@]12C)C(C)C [BETA-SITOSTEROL]	> 100 µM (inactive)	> 100 µM (inactive)	> 100 µM (inactive)	> 100 µM (inactive)	> 100 µM (inactive)	> 100 µM (inactive)	–	> 100 µM (inactive)	–	> 10 µM (inactive)	> 100 µM (inactive)	> 100 µM (inactive)	> 100 µM (inactive)	> 100 µM (inactive)	> 100	> 100 µM (inactive)	> 100 µM (inactive)	> 100 µM (inactive)	> 100 µM (inactive)	–
O=[N+]([O-])c1ccccc1S(=O)(=O)c1cc(Cl)cc2c1NCCC2	43.9 µM (inactive)	90.6 µM (inactive)	65.8 µM (inactive)	43.4 µM (inactive)	31.8 µM (inactive)	48.3 µM (inactive)	> 100 µM (inactive)	35.6 µM (inactive)	42.8 µM (inactive)	31.3 µM (inactive)	43.6 µM (inactive)	65 µM (inactive)	> 100 µM (inactive)	80 µM (inactive)	65.6	29.7 µM (inactive)	40.1 µM (inactive)	52.1 µM (inactive)	94.6 µM (inactive)	–
O=S(=O)(O)c1ccc(/N=N/c2ccc(/N=N/c3c(O)ccc4ccccc34)c(S(=O)(=O)O)c2)cc1	–	–	> 100 µM (inactive)	62.1 µM (inactive)	> 100 µM (inactive)	> 100 µM (inactive)	> 100 µM (inactive)	> 100 µM (inactive)	> 100 µM (inactive)	> 100 µM (inactive)	> 100 µM (inactive)	> 100 µM (inactive)	> 100 µM (inactive)	> 100 µM (inactive)	> 100	> 100 µM (inactive)	> 100 µM (inactive)	> 100 µM (inactive)	–	–
O=C1c2c(O)cccc2C(C(=O)CCCCCC(=O)C2c3cccc(O)c3C(=O)c3c(O)cccc32)c2cccc(O)c21	0.906 µM (active)	1.04 µM (active)	1.03 µM (active)	1.03 µM (active)	9.53 µM (inactive)	1.14 µM (inactive)	0.879 µM (active)	0.755 µM (active)	1.79 µM (inactive)	1.15 µM (inactive)	1.03 µM (active)	0.973 µM (active)	0.938 µM (active)	10.6 µM (inactive)	1	0.555 µM (active)	–	–	–	–
CSC1=N/C(=C\c2ccc(Cl)cc2)C(=O)N1CN1CCOCC1	26.4 µM (inactive)	47.5 µM (inactive)	> 100 µM (inactive)	55.2 µM (inactive)	40 µM (inactive)	27.4 µM (inactive)	30.6 µM (inactive)	–	0.0791 µM (active)	–	52.8 µM (inactive)	31.8 µM (inactive)	41.7 µM (inactive)	33.4 µM (inactive)	21.6	32.6 µM (inactive)	33 µM (inactive)	38.9 µM (inactive)	63.8 µM (inactive)	–
COC(=O)CC(CNC(=O)OCc1ccccc1)OCc1ccc(OC)cc1 (centres undefined)	> 100 µM (inactive)	> 100 µM (inactive)	> 100 µM (inactive)	> 100 µM (inactive)	> 100 µM (inactive)	> 100 µM (inactive)	> 100 µM (inactive)	> 100 µM (inactive)	> 100 µM (inactive)	> 100 µM (inactive)	> 100 µM (inactive)	> 100 µM (inactive)	> 100 µM (inactive)	> 100 µM (inactive)	> 100	> 100 µM (inactive)	–	99.5 µM (inactive)	> 100 µM (inactive)	–
CC[N+](CC)(CCNCC(N)=O)CC(N)=O	> 10 µM (inactive)	> 10 µM (inactive)	> 10 µM (inactive)	> 10 µM (inactive)	> 10 µM (inactive)	> 10 µM (inactive)	> 10 µM (inactive)	> 10 µM (inactive)	–	> 10 µM (inactive)	> 10 µM (inactive)	> 10 µM (inactive)	> 10 µM (inactive)	> 10 µM (inactive)	> 10	> 10 µM (inactive)	> 10 µM (inactive)	> 10 µM (inactive)	> 10 µM (inactive)	–
COC(=O)C(=O)C(C(=O)C=C(C)C)C(=O)C(=O)Nc1cc(C(F)(F)F)ccc1Cl (centres undefined)	46.9 µM (inactive)	> 100 µM (inactive)	> 100 µM (inactive)	> 100 µM (inactive)	> 100 µM (inactive)	> 100 µM (inactive)	> 100 µM (inactive)	70.3 µM (inactive)	17.7 µM (inactive)	> 100 µM (inactive)	> 100 µM (inactive)	> 100 µM (inactive)	> 100 µM (inactive)	> 100 µM (inactive)	> 100	> 100 µM (inactive)	–	–	–	–
COc1ccc(-c2cc(-c3ccc(Nc4ccnc5cc(C(F)(F)F)ccc45)cc3)nc(N)c2C#N)cc1	33.3 µM (inactive)	–	> 100 µM (inactive)	31 µM (inactive)	95.5 µM (inactive)	–	> 100 µM (inactive)	–	26.7 µM (inactive)	> 100 µM (inactive)	45.2 µM (inactive)	42.7 µM (inactive)	14.6 µM (inactive)	> 100 µM (inactive)	60.5	> 100 µM (inactive)	–	45.1 µM (inactive)	> 100 µM (inactive)	46.1 µM (inactive)
COC(=O)CNC(=O)CCSc1nnc(COc2ccc(Cl)cc2)n1-c1ccccc1	29.1 µM (inactive)	20.3 µM (inactive)	68.2 µM (inactive)	20.4 µM (inactive)	24.7 µM (inactive)	26.2 µM (inactive)	> 100 µM (inactive)	19.1 µM (inactive)	> 10 µM (inactive)	30 µM (inactive)	23.4 µM (inactive)	> 100 µM (inactive)	30.9 µM (inactive)	20.2 µM (inactive)	74.6	–	–	52 µM (inactive)	20.9 µM (inactive)	25.9 µM (inactive)
CC1=Nc2ccccc2NC(c2ccoc2)C1 (centres undefined)	> 100 µM (inactive)	> 100 µM (inactive)	> 100 µM (inactive)	> 100 µM (inactive)	> 100 µM (inactive)	> 100 µM (inactive)	> 100 µM (inactive)	> 100 µM (inactive)	> 100 µM (inactive)	> 100 µM (inactive)	> 100 µM (inactive)	> 100 µM (inactive)	> 100 µM (inactive)	> 100 µM (inactive)	> 100	> 100 µM (inactive)	–	–	–	–
Cc1c2n(c(=O)[nH]c1=O)C1OC(CO)C(O2)C1N=[N+]=[N-] (centres undefined)	> 100 µM (inactive)	> 100 µM (inactive)	> 100 µM (inactive)	> 100 µM (inactive)	> 100 µM (inactive)	> 100 µM (inactive)	> 100 µM (inactive)	> 100 µM (inactive)	> 100 µM (inactive)	> 100 µM (inactive)	> 100 µM (inactive)	> 100 µM (inactive)	> 100 µM (inactive)	> 100 µM (inactive)	> 100	> 100 µM (inactive)	–	–	–	–
COc1ccc(N2CC(=O)N(C(=O)COc3ccc(OCC(=O)N4C(=O)CN(c5ccc(OC)cc5)C4=S)cc3)C2=S)cc1	–	> 100 µM (inactive)	46.9 µM (inactive)	> 100 µM (inactive)	30 µM (inactive)	15.4 µM (inactive)	> 100 µM (inactive)	48.3 µM (inactive)	–	–	> 100 µM (inactive)	> 100 µM (inactive)	–	> 100 µM (inactive)	> 100	45.6 µM (inactive)	–	> 100 µM (inactive)	> 100 µM (inactive)	–
SCCCSCCSCCCSCCS	> 100 µM (inactive)	> 100 µM (inactive)	> 100 µM (inactive)	45.6 µM (inactive)	33.2 µM (inactive)	> 100 µM (inactive)	> 100 µM (inactive)	> 100 µM (inactive)	55.7 µM (inactive)	13.3 µM (inactive)	–	> 100 µM (inactive)	> 100 µM (inactive)	> 100 µM (inactive)	> 100	91.6 µM (inactive)	–	65.8 µM (inactive)	> 100 µM (inactive)	> 100 µM (inactive)
N#C/C(C(=O)Nc1ccccc1)=C(/N)N1CCOCC1	> 100 µM (inactive)	> 100 µM (inactive)	> 100 µM (inactive)	> 100 µM (inactive)	> 100 µM (inactive)	> 100 µM (inactive)	> 100 µM (inactive)	> 100 µM (inactive)	> 100 µM (inactive)	–	> 100 µM (inactive)	> 100 µM (inactive)	> 100 µM (inactive)	> 100 µM (inactive)	> 100	> 100 µM (inactive)	–	> 100 µM (inactive)	> 100 µM (inactive)	> 100 µM (inactive)
